Source: patent publication US5288621A, “Pituitary TRH receptor” (Cornell Research Foundation, Inc., priority 1990, dated 1994)
Like-named read-outs stand apart in the source and are kept apart here.

What was measured:
[1] = biological target: T1, TRH-R expressed in COS-1 cells (Mus musculus, UniProt P21761); assay: TRH-stimulated inositol phosphate formation in COS-1 cells transfected with pCDM8mTRHR; format: cell-based; settings: labeled with myo-[3H]inositol 48 hours
T1 construct: the entire TRH-R cDNA, according to the present invention, contained in a Not I/HindIII fragment was cloned directly into the eukaryotic expression vector pCDM8; expressed in transfected cells; host or cells: COS-1 cells transfected with pCDM8mTRHR
T1 sequence (P21761 1-393): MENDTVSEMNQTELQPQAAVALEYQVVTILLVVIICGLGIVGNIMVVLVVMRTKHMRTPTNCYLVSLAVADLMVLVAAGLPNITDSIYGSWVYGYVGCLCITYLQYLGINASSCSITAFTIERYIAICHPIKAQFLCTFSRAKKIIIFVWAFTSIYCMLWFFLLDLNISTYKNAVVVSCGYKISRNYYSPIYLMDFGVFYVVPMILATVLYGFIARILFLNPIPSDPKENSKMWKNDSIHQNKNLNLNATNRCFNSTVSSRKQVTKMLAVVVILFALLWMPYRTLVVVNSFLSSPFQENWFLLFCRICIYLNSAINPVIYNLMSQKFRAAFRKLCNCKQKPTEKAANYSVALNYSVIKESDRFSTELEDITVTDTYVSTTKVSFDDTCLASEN
Experimental: In FIGS. 6 and 7, COS-1 cells were transfected with the TRH-R cDNA according to the present invention, in the mammalian expression vector pCDM8 (pCDM8m TRHR) and assayed for binding and responses 48 hours later. […] In FIG. 7, COS-1 cells transfected with pCDM8mTRHR were labeled with myo-[^3 H]inositol for 48 hours, washed, and tested for dose-dependent stimulation of inositol phosphate production by TRH. The results are presented as mean ± S.D. of triplicate determinations from one of two similar experiments.
COS-1 cells were transfected using the DEAE dextran method, and after 48 to 72 hours the cells were assayed for [^3 H]methylTRH binding and TRH stimulated inositol phosphate formation.
On the day prior to transfection, 35 mm, 6 well tissue culture plates were seeded with 6×10^5 in DMEM with 10% FCS; cells should be just subconfluent for transfection. A transfection cocktail was prepared: supercoiled plasmid DNA (ethanol precipitated if necessary) was resuspended in 0.3 ml PBS, and then vortexed. 0.1 ml DEAE-dextran was added to bring the final concentration to 0.5 mg/ml, and the solution mixed thoroughly. The tissue culture medium was aspirated from the cell cultures and the COS cells were rinsed twice with 2 ml of PBS warmed to 37° C. […]

[2] = biological target: T2, TRH-R expressed in Xenopus oocytes (Mus musculus, UniProt P21761); assay: Electrophysiological response to TRH in voltage-clamped Xenopus oocytes injected with RNA transcribed from the TRH-R cDNA; format: cell-based; settings: 3 days after injection of 5 ng RNA
T2 construct: injected with RNA transcribed in vitro from the plasmid containing the TRH-R cDNA (pBSmTRHR); expressed in transfected cells; host or cells: Xenopus laevis oocytes injected with in vitro transcribed RNA from pBSmTRHR
T2 sequence (P21761 1-393): T1 sequence (P21761 1-393)
Experimental: FIG. 3 more specifically depicts the concentration-response relationship of Xenopus oocytes 3 days following injection of 5 ng of in vitro transcribed RNA. In FIG. 3, the results are presented from two experiments with N≥6.
A single oocyte, in a 0.4 ml perfusion chamber, was impaled with two standard glass electrodes filed with 3M KCl and maintained under voltage clamp using a Dagan 8500 intracellular clamp. Drugs were included in the perfusate and applied at a flow rate of 8 ml/min. The apparent latency is the time between achieving greater than 80% of the perfusate concentration in the perfusion chamber (5.5 sec after switching to TRH) and the initial deflection of the pen on the chart recorder due to membrane depolarization.
RNA was injected (25-50 nl) at the equator of oocytes, and responses were tested 24 to 72 hours after injection.
This dose dependency is the same as that observed in GH3 cells when rapid effects of TRH, such as generation of inositol 1,4,5-triphosphate or elevation of cytoplasmic calcium, were measured [see J Biol Chem 261:2712 (1986) and J Biol Chem 259:5827 (1984)].

[3] = biological target: T3, TRH receptor (TRH-R) expressed in Xenopus oocytes (Mus musculus, UniProt P21761); assay: Competition for [3H]methylTRH binding to intact Xenopus oocytes injected with RNA transcribed in vitro from pBSmTRHR
T3 construct: injected with RNA transcribed in vitro from the plasmid containing the TRH-R cDNA (pBSmTRHR); expressed in transfected cells; host or cells: Xenopus laevis oocytes injected with in vitro transcribed RNA from pBSmTRHR
T3 sequence (P21761 1-393): T1 sequence (P21761 1-393)
Experimental: FIG. 2 depicts TRH (the filled squares) and chlordiazepoxide (the unfilled circles) competion for the binding of [^3 H]methylTRH to oocytes expressing TRH receptors 3 days after injection of 5 ng of in vitro transcribed RNA. The results are presented in this figure as mean ± S.E. of duplicate determinations.
Xenopus oocytes were injected with 5 ng of sense RNA transcripts ans assayed for specific binding of TRH and electrophysiological responses to TRH. Binding to intact oocytes was performed as described in the literature [see Molecular Endocrinology 3:9070 (1989)], using 2 nM [^3 H]methylTRH as the labeled ligand, and unlabeled TRH and chlordiazepoxide as competitive inhibitors.
Five to 10 oocytes were incubated at 4° C. in 0.2 ml OR-2 containing 40 nm [^3 H]methylTRH without or with 1 μl unlabeled TRH for up to 3 hours. Oocytes were washed 7 times with 4 ml ice-cold OR-2 solution and radioactivity measured by liquid scintillation counting. Specific binding was calculated by subtracting radioactivity bound in the presence from that in the absence of unlabeled TRH. Nonspecific binding was between 30 and 45% of total binding.

[4] = biological target: T1, TRH-R expressed in COS-1 cells; assay: Competition for [3H]methylTRH binding in COS-1 cells transfected with pCDM8mTRHR; settings: 48 hours, read-out: K3 (Ki) for displacement of [3H]methylTRH binding
Experimental: In FIGS. 6 and 7, COS-1 cells were transfected with the TRH-R cDNA according to the present invention, in the mammalian expression vector pCDM8 (pCDM8m TRHR) and assayed for binding and responses 48 hours later. Specifically, FIG. 6, depicts the TRH (filled squares) and chlordiazepoxide (unfilled circles) competition for the binding of [^3 H]methylTRH. COS-1 cells transfected with pCDM8mTRHR were assayed for the binding of [^3 H]methylTRH in the presence of increasing amounts of either unlabeled TRH or chlordiazepoxide. Results are presented as mean ± range of data from duplicate determinations in one of two similar experiments. In FIG. 7, COS-1 cells transfected with pCDM8mTRHR were labeled with myo-[^3 H]inositol for 48 hours, washed, and tested for dose-dependent stimulation of inositol phosphate production by TRH. The results are presented as mean ± S.D. of triplicate determinations from one of two similar experiments. […]
No specific binding or TRH stimulated inositol phosphate formation was detectable in untransfected COS-1 cells or cells transfected with pCDM8 alone. As depicted in FIG. 6, [^3 H]methylTRH binding and displacement by TRH and chlordiazepoxide were measured. […]

pituitary TRH-R = settings: Neuroendocrinology 32:310 (1981); cited from earlier work

Compound | EC50 [1] [nM] | lowest TRH concentration that evoked an electrophysiological response [2] [nM] | EC50 ([2]; read-out: TRH concentration giving half-maximal electrophysiological response) [nM] | EC100 ([2]; read-out: TRH concentration giving maximum electrophysiological response) [µM] | Ki [3] [nM] | Ki [4] [µM] | Ki ([3]; Xenopus oocytes, 3 days after injection of 5 ng in vitro transcribed RNA, calculated, approximate, read-out: apparent inhibition constant (Ki) for inhibition of [3H]methylTRH binding) [nM] | affinity relative to TRH for the pituitary TRH-R (higher) (pituitary TRH-R) [fold]
NC(=O)[C@@H]1CCCN1C(=O)[C@H](Cc1cnc[nH]1)NC(=O)[C@@H]1CCC(=O)N1 [TRH, thyrotropin releasing hormone] | ~10 | 1 | 10 | 0.1 | ~30 | 0.01 | – | –
CNC1=Nc2ccc(Cl)cc2C(c2ccccc2)=[N+]([O-])C1 [chlordiazepoxide] | – | – | – | – | – | 20 | ~3000 | –
[^3 H]methylTRH | – | – | – | – | – | – | – | 10
